Experimental data published in US20240366587A1, “USES OF A SOMATOSTATIN MODULATOR FOR THE TREATMENT OF DISEASE” (Crinetics Pharmaceuticals, Inc., priority 2021, published 2024).
“And” between values parts separate entries of the source, which are not always exact repeats. Identical values can stand only once.

Legend:
[1] = system: subjects with acromegaly; assay: ACROBAT Edge: patient reported outcomes (Acromegaly Symptom Diary, PGI-I); format: in vivo, human
Description: Patients recorded daily acromegaly symptoms using a nine-item Acromegaly Symptom Diary (ASD). The ASD is a 9-item patient-reported measure of symptoms associated with acromegaly, including headache, joint pain, sweating, fatigue, leg weakness, swelling, numbness/tingling, sleep difficulties, and short-term memory difficulties. Symptoms experienced in the previous 24 hours are rated on an 11-point scale, from 0 (no symptom) to 10 (worst symptom). Patient Global Impression of Improvement (PGI-I) scale was completed at week 13 (end of treatment).

[2] = system: IGF-1; assay: ACROBAT Advance long-term study: IGF-1; format: in vivo, human; conditions: once daily oral, 10-40 mg/day HMG capsules; interim results
Description: (§1) ACROBAT Advance is an ongoing open-label, long-term (5 year) safety and efficacy study of paltusotine in patients rolling-over from the ACROBAT Evolve & Edge studies.
(§2) Eligible patients completing ACROBAT Edge and Evolve entered ACROBAT Advance either immediately on completion of a washout period in the parent study or after a gap during which they reverted to their routine standard of care treatment. Paltusotine therapy: initiated at 10 mg/day and titrated up to maximum dose of 40 mg/day based on IGF-1 and tolerability. Patients were administered 10 mg HMG capsules. Combination therapy was allowed for patients not reaching therapeutic targets with 40 mg/day of paltusotine monotherapy.
IGF-1 measured centrally with IDS-ISYS assay calibrated to WHO recombinant reference standard 02/254.

[3] = system: insulin-like growth factor-1 (IGF-1); assay: ACROBAT Edge Phase 2 study in acromegaly: IGF-1 levels; format: in vivo, human
Description: (§3) An open label exploratory study designed to evaluate the safety, efficacy, and pharmacokinetics of Compound A (also known as paltusotine) in subjects with acromegaly that are treated with somatostatin analogue (SSA) based treatment regimens.
(§4) 5 mg or 10 mg HMG capsule formulation. Multiple capsules were swallowed with water depending on dose specified for a given period/cohort. Enrolled patients began treatment with oral paltusotine 10 mg/day. The dose was up-titrated in a double-blind manner in 10-mg increments to a maximum 40 mg/day at weeks 4, 7 and 10 according to IGF-1 levels measured at weeks 2, 5, and 8, respectively. Up-titrations were performed if the investigator confirmed that the patient was tolerating the current dose and the unblinded central IGF-1 reader determined that IGF-1 was >0.9×ULN at week 2 and 5 or >1.0×ULN at week 8.
Primary Outcome Measures: Change from baseline (mean of Screening values) in insulin-like growth factor-1 (IGF-1) level [Time Frame: 13 Weeks].
The primary hypothesis was that the group would show no change in the median IGF-1 at Week 13 versus baseline.

[4] = Phase 1 multi-cohort single dose study: relative bioavailability and PK of SDD tablets vs HMG capsules; format: in vivo, human
Description: The study was conducted in up to 3 cohorts, each with a specific primary objective: • Cohort 1: To characterize performance of 10 mg tablets prepared by spray-dried dispersion (SDD) of Compound A-HCl salt. • Cohort 2: To evaluate the relative bioavailability of 10 mg SDD tablets compared to the Compound A-HCl hot melt granulation (HMG) formulation, 10 mg capsules. To determine the effect of timing of food administration on pharmacokinetics of low dose of the 10 mg SDD tablets. • Cohort 3: To determine the effect of timing of food administration on pharmacokinetics of SDD tablets and dose proportionality in doses higher than 20 mg. To determine the optimal dosing regimen that results in adequate systemic exposure with short post-dose fasting duration. • Cohort 4: To determine the effect of timing of food administration on pharmacokinetics of SDD tablets in doses higher than 20 mg. To determine the optimal dosing regimen of paltusotine that results in high systemic exposure with low post-dose fasting duration • Cohort 5: To determine the effect of the proton-pump inhibitor (PPI), lansoprazole, on the pharmacokinetics of a 60 mg dose of SDD tablets. To determine the effect of a low-fat meal on the pharmacokinetics of a 60 mg dose of SDD tablets.
The SDD tablets were evaluated. Up to twelve (12) healthy male and female subjects were enrolled in each cohort. Cohort 1 consisted of 4 periods: In Period 1, subjects were administered a proton-pump inhibitor (lansoprazole, 15 mg BID for 3 days (from Day −3), taken orally at least 30 min prior to a meal, once in the morning and once in the evening). On the fourth day (Day 1 of study), fasted subjects will take the last dose of lansoprazole (15 mg) 60 min prior to 20 mg Compound A (2×10 mg of the SDD tablets). In Period 2, fasted subjects were administered 20 mg Compound A (2×10 mg of the SDD tablets). In Period 3, fasted subjects were administered 20 mg Compound A (2×10 mg of the SDD tablets) with a high-fat, high-calorie meal. In Period 4, fasted subjects will take up to 80 mg Compound A (up to 8×10 mg of the SDD tablets). […]

[5] = Phase 1 single-and-multiple-dose study in healthy volunteers: oral glucose tolerance test / safety; format: in vivo, human; conditions: for change in fasting plasma glucose: multiple dosing up to 30 mg; for treatment emergent adverse events of hyperglycemia: repeated daily dosing 5-30 mg, OGTT after 10 days of dosing; for glucose concentration by 2 hours post challenge / peak glucose concentration 1 hour post oral glucose challenge: one subject
Description: A phase 1, randomized, double-blind, placebo-controlled, single and multiple ascending dose study was performed with oral Compound A at a single study center. Inclusion criteria included age 18 to 50 years; body mass index of 18-30 kg/m^2; and if female, postmenopausal by history or surgery. Exclusion criteria included presence of significant medical history.
In the single-dose phase, participants were randomized 6:2 to Compound A (1.25, 2.5, 5, 10, 20, 40, and 60 mg) or placebo in 7 cohorts (S1 to S7). Cohorts comparing oral bioavailability of solution versus capsules and the effect of a standardized high-fat, high-calorie breakfast on oral bioavailability of the capsule formulation employed the 10 mg dose level. In the multiple-dose phase, participants were randomized 6:3 to once-daily oral Compound A-HCl capsules or placebo at doses of 5 mg for 7 days (M1, Day Last=Day 7), and 10, 20, and 30 mg daily for 10 days (M2, M3, M4, Day Last=Day 10).
Safety assessments: Safety assessments included monitoring of clinical laboratory tests, cardiovascular safety monitoring (continuous Holter monitoring, ECG, telemetry), and physical examinations conducted at scheduled times throughout the study in the research units as well as post-discharge (up to 9 days after the single-dose, or up to 11 days after the last dose for multiple-dose cohorts). Adverse events and concomitant medications were recorded. Laboratory samples for clinical chemistry, hematology, coagulation tests, and urinalysis were collected under fasted conditions.
In the multiple-dose cohorts, baseline serum TSH, ACTH, and prolactin samples were collected on Day −2, and an oral glucose tolerance test (OGTT) was conducted on Day −7 or earlier. These assessments were repeated on Day 8 (M1) or Day 11 (M2 and subsequent cohorts).
Clinically significant hypoglycemia occurred in 1 subject in Cohort M3 (Compound A-HCl−10 days at 20 mg/day) at 2 and at 3 hours post-glucose challenge, and in 1 subject in Cohort M4 (Compound A-HCl−10 days at 30 mg/day) at 3 hours post-glucose challenge at the baseline assessment (Day −7).

[6] = Clinical studies: bioavailability and half-life of Compound A; format: in vivo; conditions: human, plasma, oral
Source text: Compound A is a selective nonpeptide SST2 biased agonist. […] In some embodiments, Compound A is used to treat acromegaly, neuroendocrine tumors, or both. In some embodiments, Compound A is used to treat acromegaly. In some embodiments, Compound A is used to treat neuroendocrine tumors. In some embodiments, Compound A is used to treat pituitary gigantism.

[7] = system: subjects with acromegaly; assay: ACROBAT Advance long-term study: safety and tolerability; format: in vivo, human; conditions: acromegaly patients; including in combination with cabergoline
Description: as §1, §2

[8] = system: growth hormone (GH); assay: ACROBAT Edge Phase 2 study in acromegaly: GH levels; format: in vivo, human
Description: as §3, §4

[9] = system: IGF-1; assay: Phase 2 clinical trials of acromegaly patients previously treated with LA-SRLs: steady state IGF-1 change by dose; format: in vivo, human; conditions: baseline = IGF-1 at last LA-SRL injection
Source text: The switch to Compound A-monohydrochloride occurred 4 weeks after last LA-SRL injection.

[10] = Cohort M2 (10 mg/day, 10 days), monohydrochloride
[11] = Cohort M3 (20 mg/day, 10 days), monohydrochloride

In the case of N#Cc1cccc(-c2ccc3ncc(-c4cc(F)cc(F)c4)c(N4CCC(N)CC4)c3c2)c1O [Compound A, 3-(4-(4-amino-piperidin-1-yl)-3-(3,5-difluoro-phenyl)-quinolin-6-yl)-2-hydroxy-benzonitrile], the “change in total ASD score from Baseline to week 13/EoT, median (IQR)” value ([1]; n=18, score range 0-70) is reported as −0.43 (−5.0, 2.4), the “patients "minimally improved" or "no change" on PGI-I” value ([1]; week 13/EoT) is reported as 26 (55.3%) patients and the “patients reporting worsening on PGI-I” value ([1]; week 13/EoT) is reported as “No patients reported any degree of worsening”. The “patients "very much improved" or "much improved" on PGI-I” value ([1]; week 13/EoT, compared to before the study, while treated with depot SRLs) was 11 (23.4%) patients, the “IGF-1 level on long-term treatment” value [2] was “lowers and maintains IGF-1 at levels comparable to prior injected SRL therapy for up to 51 weeks” and the “change of IGF-1 levels from baseline after 13 weeks of treatment” value ([3]; acromegaly patients previously treated with injected SRL depots, 10-40 mg/day) was “did not significantly change from baseline”. For the same compound, the “IGF-1 after withdrawal of treatment” value ([3]; acromegaly patients, washout) was “Rise in IGF-1 after withdrawal (within 2 weeks)”, the “reduction of exposures (Cmax and AUC) when administered with PPI” value ([4]; Cohort 5, 60 mg SDD tablets) was about 40% and the “reduction of exposures (Cmax and AUC) when administered with low-fat meal” value ([4]; Cohort 5, 60 mg SDD tablets) was about 60%. The “reduction of exposures when administered with high-fat meal” value ([4]; SDD tablets) was over 80%, the “change in fasting plasma glucose” value ([5]; healthy volunteers) was “not associated with significant changes in fasting plasma glucose” and the “treatment emergent adverse events of hyperglycemia” value ([5]; healthy volunteers) was “Two TEAEs of asymptomatic hyperglycemia occurred”. The “increase from baseline in serum glucose AUC0-3 hr” value ([5]; healthy volunteers, up to 30 mg, placebo 18%) was “up to 36%”, the “glucose concentration by 2 hours post challenge” value ([5]; Cohort M2 (10 mg/day, 10 days)) was 4.3 mmol/L and 77 mg/dL and the “peak glucose concentration 1 hour post oral glucose challenge” value ([5]; Cohort M2 (10 mg/day, 10 days)) was 12.4 mmol/L and 223 mg/dL. The “glucose concentration by 2 hours post challenge” value ([5]; Cohort M3 (20 mg/day, 10 days)) was 5.8 mmol/L and 104 mg/dL, the “peak glucose concentration 1 hour post oral glucose challenge” value ([5]; Cohort M3 (20 mg/day, 10 days)) was 12.2 mmol/L and 220 mg/dL and the bioavailability ([6]; read-out: estimated bioavailability) was about 70%. The half-life ([6]; read-out: observed half-life) was 42 to 50 h, the “tolerability and safety profile” value [7] was “well tolerated with a safety profile similar to that of SRLs” and the “change of GH levels from baseline after 13 weeks of treatment” value ([8]; acromegaly patients previously treated with injected SRL depots) was “did not significantly change from baseline levels”. For the same compound, the “GH after withdrawal of treatment” value ([8]; acromegaly patients, washout) was “Rise in GH after withdrawal”.
In the case of Cl.N#Cc1cccc(-c2ccc3ncc(-c4cc(F)cc(F)c4)c(N4CCC(N)CC4)c3c2)c1O [Compound A-HCl, 3-[4-(4-amino-piperidin-1-yl)-3-(3,5-difluoro-phenyl)-quinolin-6-yl]-2-hydroxy-benzonitrile monohydrochloride], the “steady state IGF-1 change from baseline” value ([9]; 10 and 20 mg per day) is reported as “IGF-1 levels that were above baseline”, the “steady state IGF-1 change from baseline” value ([9]; 30/day and 40 mg/day) is reported as “changes from baseline of near zero” and the “Glucose AUC (0-3 hr) Difference (SE), oral glucose tolerance test” value (from here on “Glucose AUC (0-3 hr) Difference (SE)”) ([5]; healthy volunteers, 7 days - 5 mg/day, Day −7 vs day after last dose) is reported as 3.8 (4.00) h*mmol/L. The “Glucose AUC (0-3 hr) Difference (SE)” value ([5]; healthy volunteers, 10 days - 10 mg/day) was 2.4 (3.19) h*mmol/L, the “Glucose AUC (0-3 hr) Difference (SE)” value ([5]; healthy volunteers, 10 days - 20 mg/day) was 5.1 (3.12) h*mmol/L and the “Glucose AUC (0-3 hr) Difference (SE)” value ([5]; healthy volunteers, 10 days - 30 mg/day, monohydrochloride) was 3.2 h*mmol/L and 3.2 (1.34) h*mmol/L. For the same compound, the “change in fasting plasma glucose” value ([5]; healthy volunteers) was “wasn't significantly changed”, the “treatment emergent adverse events of hyperglycemia” value ([5]; healthy volunteers) was “two treatment emergent adverse effects (TEAEs) of asymptomatic hyperglycemia occurred” and the “glucose concentration by 2 hours post challenge” value [5, 10] was 77 mg/dL and 4.3 mmol/L. For the same compound, the “peak glucose concentration 1 hour post oral glucose challenge” value [5, 10] was 12.4 mmol/L and 223 mg/dL, the “glucose concentration by 2 hours post challenge” value [5, 11] was 5.8 mmol/L and 104 mg/dL and the “peak glucose concentration 1 hour post oral glucose challenge” value [5, 11] was 12.2 mmol/L and 220 mg/dL.
